Test results published in ChEMBL document CHEMBL1201862, “PubChem BioAssay data set” (2004).
Where “and” joins values, the source holds several entries; their conditions need not be identical. Equal values may be shown once. Calls of active or inactive are those of the source.

Legend:
Type in all cases: functional
[1] = tested on: H4; test: Luminescence Cell-Based Dose Response HTS to Identify Activators of 5'UTR Stem-Loop Driven Prion Protein mRNA Translation in H4 Neuroglioblastoma Cells. [Related pubchem assays: 1829 (Project Summary), 1814 (Primary HTS)]; conditions: Homo sapiens
[2] = molecular target: DNA dC->dU-editing enzyme APOBEC-3A (Homo sapiens, UniProt P31941); test: Dose Response confirmation of small molecule APOBEC3A DNA Deaminase Inhibitors via a fluorescence-based single-stranded DNA deaminase assay. [Related pubchem assays (depositor defined):AID493011, AID493024]
[3] = Luminescence Cell-Based Dose Confirmation HTS to Identify Activators of 5'UTR Stem-Loop Driven Alpha-Synuclein mRNA Translation in H4 Neuroglioblastoma Cells. [Related pubchem assays: 1829 (Project Summary), 1814 (Primary HTS)]
[4] = Luminescence Cell-Based Dose Response HTS to Identify Activators of Luciferase Translation or Activity in H4 […] Cells. [Related pubchem assays: 1829 (Project Summary), 1814 (Primary HTS)]
[5] = molecular target: DNA dC->dU-editing enzyme APOBEC-3G (Homo sapiens, UniProt Q9HC16);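 note: Dose-response counterscreen measuring inhibition of APOBEC3G DNA deaminase activity, run while confirming APOBEC3A inhibitors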
[6] = molecular target: T1, Voltage-gated N-type calcium channel alpha-1B subunit/Amyloid beta A4 precursor protein-binding family A member 1 (Homo sapiens, UniProt Q00975+Q02410); test: disruptors of Mint-PDZ/N-type channel peptide interaction – biochemical, HTRF, SAR follow-up (AID 2489)
[7] = molecular target: T1, Voltage-gated N-type calcium channel alpha-1B subunit/Amyloid beta A4 precursor protein-binding family A member 1; test: disruptors of Mint-PDZ/N-type channel peptide interaction – biochemical, HTRF, set 2, SAR follow-up (AID 434980)
[8] = molecular target: SUMO E1/E2 (Homo sapiens, UniProt P63279+Q9UBE0+Q9UBT2); test: SAR analysis of SUMOylation using HTRF in an in-Vitro dose response assay. [Related pubchem assays (depositor defined):AID2006, AID2011, AID2018, AID2069, AID2658]
[9] = molecular target: Kappa-type opioid receptor (Homo sapiens, UniProt P41145); test: SAR analysis of small molecule agonists of the kappa opioid receptor via a luminescent beta-arrestin assay - Set 3. [Related pubchem assays (depositor defined):AID1777, AID1785, AID1786, AID1966, AID2133, AID2136, AID2284, AID2500]
[10] = molecular target: T2, Coagulation factor XII (Homo sapiens, UniProt P00748);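 note: activated factor XIIa alpha cleaving a fluorogenic AMC peptide substrate; inhibitor potency from loss of enzyme activity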
T2 sequence (P00748 whole entry): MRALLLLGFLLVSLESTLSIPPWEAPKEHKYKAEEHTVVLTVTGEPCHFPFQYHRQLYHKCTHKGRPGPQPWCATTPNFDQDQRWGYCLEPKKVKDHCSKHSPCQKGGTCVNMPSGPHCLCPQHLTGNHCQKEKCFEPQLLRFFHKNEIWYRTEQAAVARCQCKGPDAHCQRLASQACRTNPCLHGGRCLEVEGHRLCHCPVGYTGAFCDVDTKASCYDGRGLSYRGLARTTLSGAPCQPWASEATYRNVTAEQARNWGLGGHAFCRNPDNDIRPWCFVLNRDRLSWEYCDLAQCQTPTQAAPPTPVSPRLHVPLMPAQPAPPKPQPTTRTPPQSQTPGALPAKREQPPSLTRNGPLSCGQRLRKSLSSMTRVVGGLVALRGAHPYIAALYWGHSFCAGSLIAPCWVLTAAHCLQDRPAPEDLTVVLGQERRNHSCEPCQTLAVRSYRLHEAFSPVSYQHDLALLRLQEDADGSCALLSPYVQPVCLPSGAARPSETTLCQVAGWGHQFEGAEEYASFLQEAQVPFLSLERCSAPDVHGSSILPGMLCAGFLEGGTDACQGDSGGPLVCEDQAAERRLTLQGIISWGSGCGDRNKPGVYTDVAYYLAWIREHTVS

T1 sequence (Q00975 whole entry): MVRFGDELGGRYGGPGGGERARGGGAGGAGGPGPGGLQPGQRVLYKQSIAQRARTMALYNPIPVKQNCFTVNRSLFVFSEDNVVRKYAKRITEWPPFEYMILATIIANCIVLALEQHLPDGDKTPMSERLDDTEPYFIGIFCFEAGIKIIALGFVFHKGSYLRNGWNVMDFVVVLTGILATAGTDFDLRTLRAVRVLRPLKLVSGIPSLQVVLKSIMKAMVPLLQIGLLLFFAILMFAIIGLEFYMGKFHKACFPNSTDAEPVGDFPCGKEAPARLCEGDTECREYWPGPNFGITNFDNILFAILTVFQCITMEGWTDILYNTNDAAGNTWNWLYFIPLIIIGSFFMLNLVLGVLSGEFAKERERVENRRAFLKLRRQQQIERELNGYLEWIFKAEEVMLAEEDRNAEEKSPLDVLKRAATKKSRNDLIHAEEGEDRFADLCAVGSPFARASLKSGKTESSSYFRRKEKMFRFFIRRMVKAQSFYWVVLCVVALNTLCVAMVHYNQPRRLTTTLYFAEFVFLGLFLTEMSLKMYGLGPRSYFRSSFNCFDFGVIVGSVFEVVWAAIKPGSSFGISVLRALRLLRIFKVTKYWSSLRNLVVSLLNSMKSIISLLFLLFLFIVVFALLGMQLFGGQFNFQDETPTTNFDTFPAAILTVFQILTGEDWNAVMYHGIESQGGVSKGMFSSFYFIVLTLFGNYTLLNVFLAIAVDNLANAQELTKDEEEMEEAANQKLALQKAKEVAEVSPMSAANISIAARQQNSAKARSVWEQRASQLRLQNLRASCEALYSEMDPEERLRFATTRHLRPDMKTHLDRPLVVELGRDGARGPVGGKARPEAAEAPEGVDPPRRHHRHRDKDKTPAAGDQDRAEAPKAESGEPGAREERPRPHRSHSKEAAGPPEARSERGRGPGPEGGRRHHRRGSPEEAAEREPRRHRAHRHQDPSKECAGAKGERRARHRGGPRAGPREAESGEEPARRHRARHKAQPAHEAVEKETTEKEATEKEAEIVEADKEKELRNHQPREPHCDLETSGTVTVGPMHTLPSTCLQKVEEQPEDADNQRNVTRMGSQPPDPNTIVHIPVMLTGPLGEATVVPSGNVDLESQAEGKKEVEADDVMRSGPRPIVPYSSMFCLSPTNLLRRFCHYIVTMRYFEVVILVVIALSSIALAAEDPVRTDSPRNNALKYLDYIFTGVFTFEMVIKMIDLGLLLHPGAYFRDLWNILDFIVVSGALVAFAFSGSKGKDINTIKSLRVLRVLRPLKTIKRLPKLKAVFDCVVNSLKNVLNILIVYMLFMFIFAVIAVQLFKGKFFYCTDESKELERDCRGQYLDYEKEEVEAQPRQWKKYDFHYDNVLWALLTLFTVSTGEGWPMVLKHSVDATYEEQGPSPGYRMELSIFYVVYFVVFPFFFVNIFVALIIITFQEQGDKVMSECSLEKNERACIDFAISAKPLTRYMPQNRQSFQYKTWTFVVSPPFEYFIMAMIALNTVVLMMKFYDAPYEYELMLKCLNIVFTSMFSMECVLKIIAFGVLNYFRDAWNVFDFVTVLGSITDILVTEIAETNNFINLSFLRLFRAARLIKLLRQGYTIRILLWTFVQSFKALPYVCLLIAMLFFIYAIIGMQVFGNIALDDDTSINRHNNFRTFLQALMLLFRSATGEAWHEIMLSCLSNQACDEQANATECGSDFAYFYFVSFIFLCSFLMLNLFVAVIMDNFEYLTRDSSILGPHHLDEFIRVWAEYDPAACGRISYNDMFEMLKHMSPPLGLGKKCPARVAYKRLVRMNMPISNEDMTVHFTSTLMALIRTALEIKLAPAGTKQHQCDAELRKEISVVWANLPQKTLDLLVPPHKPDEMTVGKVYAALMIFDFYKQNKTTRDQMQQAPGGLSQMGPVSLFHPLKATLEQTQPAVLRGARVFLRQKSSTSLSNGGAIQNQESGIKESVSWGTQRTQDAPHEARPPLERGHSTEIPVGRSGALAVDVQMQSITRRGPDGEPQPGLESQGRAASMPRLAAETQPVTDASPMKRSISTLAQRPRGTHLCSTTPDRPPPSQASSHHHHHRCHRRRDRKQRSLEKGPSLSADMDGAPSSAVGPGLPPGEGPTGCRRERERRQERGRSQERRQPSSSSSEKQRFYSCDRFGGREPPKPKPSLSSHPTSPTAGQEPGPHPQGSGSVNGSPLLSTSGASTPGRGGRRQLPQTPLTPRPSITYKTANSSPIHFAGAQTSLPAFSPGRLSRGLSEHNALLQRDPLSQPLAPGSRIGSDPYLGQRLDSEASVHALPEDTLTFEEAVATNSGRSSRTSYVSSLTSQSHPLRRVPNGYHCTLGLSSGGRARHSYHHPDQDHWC
T1 sequence (Q02410 whole entry): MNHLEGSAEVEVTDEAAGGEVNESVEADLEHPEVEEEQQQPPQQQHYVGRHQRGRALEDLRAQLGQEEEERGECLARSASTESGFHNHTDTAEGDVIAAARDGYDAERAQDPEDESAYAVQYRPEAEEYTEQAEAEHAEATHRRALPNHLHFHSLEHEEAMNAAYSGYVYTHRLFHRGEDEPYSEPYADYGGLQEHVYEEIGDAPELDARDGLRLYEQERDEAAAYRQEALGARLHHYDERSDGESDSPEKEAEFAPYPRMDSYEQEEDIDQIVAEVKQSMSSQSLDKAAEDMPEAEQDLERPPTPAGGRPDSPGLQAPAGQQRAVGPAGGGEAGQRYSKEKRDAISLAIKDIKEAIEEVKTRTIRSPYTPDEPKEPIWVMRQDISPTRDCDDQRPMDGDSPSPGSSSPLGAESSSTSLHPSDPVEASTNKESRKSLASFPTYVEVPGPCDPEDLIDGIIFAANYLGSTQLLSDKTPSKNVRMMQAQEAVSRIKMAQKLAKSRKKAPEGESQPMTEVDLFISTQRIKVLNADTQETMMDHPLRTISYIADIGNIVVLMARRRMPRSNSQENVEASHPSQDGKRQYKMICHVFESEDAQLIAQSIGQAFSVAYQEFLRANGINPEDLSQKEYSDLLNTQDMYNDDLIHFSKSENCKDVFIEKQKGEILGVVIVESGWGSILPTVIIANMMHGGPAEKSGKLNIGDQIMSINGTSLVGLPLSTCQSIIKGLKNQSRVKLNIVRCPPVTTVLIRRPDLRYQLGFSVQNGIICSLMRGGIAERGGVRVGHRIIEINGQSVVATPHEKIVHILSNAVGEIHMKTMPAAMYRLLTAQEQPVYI
Chain of SUMO E1/E2 (Q9UBE0 whole entry): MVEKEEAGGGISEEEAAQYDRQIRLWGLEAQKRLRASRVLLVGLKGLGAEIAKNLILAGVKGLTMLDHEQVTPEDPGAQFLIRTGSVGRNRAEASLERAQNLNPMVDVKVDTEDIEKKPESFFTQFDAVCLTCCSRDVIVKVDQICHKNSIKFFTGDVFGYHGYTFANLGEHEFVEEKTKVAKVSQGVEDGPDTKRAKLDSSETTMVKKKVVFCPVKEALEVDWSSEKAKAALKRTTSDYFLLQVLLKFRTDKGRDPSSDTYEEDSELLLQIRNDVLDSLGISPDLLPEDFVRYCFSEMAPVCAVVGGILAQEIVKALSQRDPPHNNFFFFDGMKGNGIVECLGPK
Chain of SUMO E1/E2 (Q9UBT2 whole entry): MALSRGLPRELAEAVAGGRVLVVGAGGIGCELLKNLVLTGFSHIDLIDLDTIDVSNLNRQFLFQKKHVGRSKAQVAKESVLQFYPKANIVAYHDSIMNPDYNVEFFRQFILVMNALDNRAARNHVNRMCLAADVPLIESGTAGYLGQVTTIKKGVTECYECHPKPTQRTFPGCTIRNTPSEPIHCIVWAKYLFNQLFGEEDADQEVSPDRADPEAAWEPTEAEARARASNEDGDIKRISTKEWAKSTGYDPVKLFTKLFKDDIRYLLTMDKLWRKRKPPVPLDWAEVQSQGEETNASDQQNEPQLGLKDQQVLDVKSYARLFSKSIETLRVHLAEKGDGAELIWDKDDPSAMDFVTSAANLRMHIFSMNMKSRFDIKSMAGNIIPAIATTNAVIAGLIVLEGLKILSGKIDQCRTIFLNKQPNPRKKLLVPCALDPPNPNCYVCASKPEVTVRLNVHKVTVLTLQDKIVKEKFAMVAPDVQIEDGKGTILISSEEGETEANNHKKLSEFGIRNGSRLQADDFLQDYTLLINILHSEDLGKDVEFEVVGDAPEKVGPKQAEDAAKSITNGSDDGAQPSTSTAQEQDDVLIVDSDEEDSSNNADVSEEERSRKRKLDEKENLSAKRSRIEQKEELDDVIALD
Chain of SUMO E1/E2 (P63279 whole entry): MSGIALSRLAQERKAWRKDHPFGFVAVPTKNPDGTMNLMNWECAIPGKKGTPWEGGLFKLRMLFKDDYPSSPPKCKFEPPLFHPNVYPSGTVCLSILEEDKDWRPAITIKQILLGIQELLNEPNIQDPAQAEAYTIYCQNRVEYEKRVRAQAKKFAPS
Chain of Kappa-type opioid receptor (P41145 whole entry): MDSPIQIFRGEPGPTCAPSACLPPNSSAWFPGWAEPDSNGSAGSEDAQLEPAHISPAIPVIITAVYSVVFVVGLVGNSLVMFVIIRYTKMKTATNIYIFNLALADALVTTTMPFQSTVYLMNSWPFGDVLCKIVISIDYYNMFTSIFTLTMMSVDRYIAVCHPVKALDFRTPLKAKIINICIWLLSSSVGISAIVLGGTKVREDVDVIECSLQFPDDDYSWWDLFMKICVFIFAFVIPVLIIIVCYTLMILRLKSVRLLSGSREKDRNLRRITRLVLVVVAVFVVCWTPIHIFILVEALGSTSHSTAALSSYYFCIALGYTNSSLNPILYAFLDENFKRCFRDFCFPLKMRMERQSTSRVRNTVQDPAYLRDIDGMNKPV
Chain of DNA dC->dU-editing enzyme APOBEC-3A (P31941 whole entry): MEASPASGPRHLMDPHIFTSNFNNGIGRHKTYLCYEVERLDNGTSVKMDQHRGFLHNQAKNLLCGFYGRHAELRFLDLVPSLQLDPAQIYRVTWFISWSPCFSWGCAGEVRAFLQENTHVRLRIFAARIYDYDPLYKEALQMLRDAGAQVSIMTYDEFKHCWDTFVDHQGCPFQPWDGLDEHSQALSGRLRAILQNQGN

CC(C)(C)C(=O)c1cn(CC(=O)NCc2ccco2)c2ccccc12
EC50 [1]: 13.2 µM (active)
IC50 [2]: 3.56 µM (active)
EC50 [3]: 14.9 µM (active)
EC50 [4]: 15.9 µM (active)
IC50 [5]: 4.75 µM (active)

COc1ccccc1NC(=O)COC(=O)c1cc(-c2ccco2)nc2ccccc12
IC50 [6]: 21.5 µM (active) and > 56.8 µM (inactive)
IC50 [7]: 6.66 µM (active) and 12.5 µM (active)
IC50 [8]: 16 µM (active) and 56.7 µM (active)

COc1ccc(CNC(=O)COC(=O)c2cc(-c3ccco3)nc3ccccc23)c(OC)c1
IC50 [6]: 23 µM (active)
IC50 [7]: 11.1 µM (active)
IC50 [8]: 14.7 µM (active)

O=C(c1ccccn1)N(Cc1cc2cc(Cl)ccc2[nH]c1=O)CC1CC1
EC50 [9]: > 20 µM (inactive)

COC(=O)/C(=C/Nc1ccccc1)[N+](=O)[O-]
IC50 [10]: > 50 µM (inactive)
